The text below walks through data of paper PMC9864251 (Viruses, 2022).

For orientation: EC50 means the concentration giving half of the maximal effect. For orientation: IC50 means the concentration needed to halve the response being measured.

One data set concerns NoV. Further details: method as in earlier work. As to conditions: cited from earlier work.
On the set-up of data set [1]: method as in earlier work. Particulars: cited from earlier work.
The test system of another data set is RAW 264.7 cells. Put plainly: Cytotoxicity by the MTS method in uninfected RAW 264.7 cells. The data set is classed as cell-based, mouse. Particulars: 3 days, 0.6–100 μM range, mean ± SD, at least three independent experiments.
Data set [2] addresses T1, HuNoV (GII.4) RdRp (Norovirus GII.4 (Human norovirus, Norovirus norwalkense), UniProt P54634). Particulars: activity data as previously reported ref 18,19, read-out: In Vitro RdRp Activity Assay IC50; cited from earlier work.
For data set [3], the target named is T1, HuNoV (GII.4) RdRp. Put plainly: Gel-based (gel-shift) RdRp primed elongation assay with PE44-NoV template. Particulars: compounds at fixed concentration of 100 μM. It counts as biochemical.
In data set [4] the test system is MNV (virus strain MNV-1.CW1). The experiment in a line: MNV antiviral MTS-based cytopathic effect. It counts as cell-based, murine norovirus. Particulars: Norwalk virus, RAW264.7, 72 h, read-out: MNV EC50. For orientation: Cytopathic effects are the visible damage that an infection or toxin causes in cultured cells.
Data set [5] has as its target T1, HuNoV (GII.4) RdRp. The experiment in a line: Quantitative fluorescent RdRp activity assay (PicoGreen, poly(C) template). The data set is classed as biochemical. Particulars: compounds at 20 μM in triplicate, normalized to DMSO control.
The subject of the next data set is HuNoVpol. On the set-up: method as in earlier work. Particulars: cited from earlier work.
A further data set deals with MNV. Further details: method as in earlier work. Particulars: cited from earlier work.
A further data set deals with MNVpol. On the set-up: method as in earlier work. Particulars: cited from earlier work.

T1 sequence (P54634 1190-1699): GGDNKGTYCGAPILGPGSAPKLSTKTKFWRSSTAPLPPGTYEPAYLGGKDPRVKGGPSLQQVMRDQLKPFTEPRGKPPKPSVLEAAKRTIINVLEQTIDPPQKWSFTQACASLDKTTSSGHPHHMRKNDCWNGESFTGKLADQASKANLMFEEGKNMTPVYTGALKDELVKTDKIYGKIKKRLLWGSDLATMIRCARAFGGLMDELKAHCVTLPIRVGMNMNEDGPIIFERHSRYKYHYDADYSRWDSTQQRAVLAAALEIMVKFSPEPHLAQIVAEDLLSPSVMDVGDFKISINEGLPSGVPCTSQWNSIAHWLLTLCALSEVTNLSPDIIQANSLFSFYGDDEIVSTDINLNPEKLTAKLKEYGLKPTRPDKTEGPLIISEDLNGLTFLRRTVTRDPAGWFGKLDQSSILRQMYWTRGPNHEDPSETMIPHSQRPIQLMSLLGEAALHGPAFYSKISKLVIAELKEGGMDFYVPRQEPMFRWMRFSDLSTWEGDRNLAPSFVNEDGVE

On to `C[C@@]1(O)[C@H](O)[C@@H](CO)O[C@H]1n1ccc(N)nc1=O` [Compound 2-CMC, 2′-C-methylcytidine], for which the EC50 with NoV is 8.2 µM. Further, in data set [1], the CC50 is more than 100 µM.

`Cc1cc(C(=O)O)ccc1-c1ccc(/C=C2\SC(=O)N(CC(=O)N3CCOCC3)C2=O)o1` [Compound 4]: the “MNV CC50” value with RAW 264.7 cells is recorded as “did not display any cytotoxicity”. At HuNoV (GII.4) RdRp [2], the IC50 is 15 µM.

For `O=C(CN1C(=O)S/C(=C\c2ccc(-c3ccc(OP(=O)(O)O)cc3)o2)C1=O)N1CCOCC1` [Compound 4c], the “Inhibition of RdRp primed elongation activity (gel-shift)” value (shortened to “Inhibition … (gel-shift)”) at HuNoV (GII.4) RdRp [3] is “partial inhibition”.

Turning to `Cc1ccc(NC(=O)CSc2n[nH]c(-c3ccccc3O)n2)c(C)c1` [Compound 1], the “Inhibition … (gel-shift)” value at HuNoV (GII.4) RdRp [3] is “partial inhibition”.

In the case of `O=C1NN(c2ccccc2)C(=O)/C1=C/c1ccc(-c2ccc(S(=O)(=O)Nc3ccccc3)cc2)o1` [Compound 5], the “Inhibition … (gel-shift)” value on HuNoV (GII.4) RdRp [3] is on record as “completely abolish”. In addition, in data set [4], the EC50 was more than 100 µM. The IC50 on HuNoV (GII.4) RdRp [2] was 5.6 µM.

As to `O=C(N/N=C/c1ccc(O)cc1O)c1ccccc1OCc1ccccc1` [Compound 3a], the “Inhibition of HuNoV RdRp activity at 20 μM” value (“Inhibition … at 20 μM” below) on HuNoV (GII.4) RdRp [5] is on record as “modest inhibition”. The “Inhibition … (gel-shift)” value on HuNoV (GII.4) RdRp [3] is given as “did not show significant inhibition”.

In the case of `Cc1ccc(NC(=O)CS(=O)(=O)c2n[nH]c(-c3ccccc3O)n2)c(C)c1` [Compound 1f], on HuNoV (GII.4) RdRp [3], the “Inhibition … (gel-shift)” value was “partial inhibition”. Besides, the “MNV CC50” value with RAW 264.7 cells is “not associated with any cytotoxicity”.

`Cc1nc(-c2ccccc2)sc1C(=O)Nc1sc2c(c1C#N)CCC2` [NIC02]: the IC50 in the data set on HuNoVpol was 5 µM. Further, the EC50 with MNV was 4.8 µM.

For `Cc1nc(/N=N/c2cc(S(=O)(=O)O)c3cc([N+](=O)[O-])cc(S(=O)(=O)O)c3c2)c(COP(=O)(O)O)c(C=O)c1O` [PPNDS, reference compound], on HuNoV (GII.4) RdRp [3], the “Inhibition … (gel-shift)” value was “complete inhibition”. The IC50 at HuNoV (GII.4) RdRp [2] was 1.5 ± 0.25 µM; in the data set with HuNoVpol, 0.45 µM.

Take `O=C(N/N=C/c1ccc(OCc2ccccc2)cc1O)c1ccccc1O` [Compound 3b]: the “Inhibition … at 20 μM” value at HuNoV (GII.4) RdRp [5] is recorded as “modest inhibition”. Moreover, the “Inhibition … (gel-shift)” value at HuNoV (GII.4) RdRp [3] is given as “did not show significant inhibition”.

As for `Cc1ccc(C(=O)Nc2ccc(S(=O)(=O)O)c3cc(S(=O)(=O)O)cc(S(=O)(=O)O)c23)cc1NC(=O)c1cccc(NC(=O)Nc2cccc(C(=O)Nc3cc(C(=O)Nc4ccc(S(=O)(=O)O)c5cc(S(=O)(=O)O)cc(S(=O)(=O)O)c45)ccc3C)c2)c1` [Suramin], the IC50 in the data set with HuNoVpol was 0.025 µM; in the data set with MNVpol it was 0.07 µM.

Turning to `O=C(Nc1cccc(N2C(=O)c3ccccc3C2=O)c1)c1ccccc1` [Compound 2e], the “Inhibition … at 20 μM” value on HuNoV (GII.4) RdRp [5] is given as “loss of inhibitory activity”.

As for `COc1ccc(N2C(=O)c3ccc(C(=O)O)cc3C2=O)cc1NC(=O)c1ccccc1` [Compound 2], the “Inhibition … at 20 μM” value on HuNoV (GII.4) RdRp [5] is “limited RdRp inhibition”. For the same compound, the “Inhibition … (gel-shift)” value on HuNoV (GII.4) RdRp [3] is recorded as “partial inhibition”.

Consider `O=C(CN1C(=O)S/C(=C\c2ccc(-c3ccc(O)cc3)o2)C1=O)N1CCOCC1` [Compound 4b], for which, at HuNoV (GII.4) RdRp [3], the “Inhibition … (gel-shift)” value is “significant but partial inhibition”. Moreover, the “MNV CC50” value in the data set on RAW 264.7 cells is “cytotoxic effect in the micromolar range”.

Take `NC(=O)c1nc(F)c[nH]c1=O` [Compound T-705, Favipiravir]: the EC50 in the data set on NoV was 21 µM. In addition, the CC50 in [1] is more than 100 µM.

On to `O=C1NN(c2ccc(O)cc2)C(=O)/C1=C/c1ccc(-c2ccc(S(=O)(=O)Nc3ccccc3)cc2)o1` [Compound 5a], for which the “Inhibition … (gel-shift)” value at HuNoV (GII.4) RdRp [3] is listed as “nearly complete inhibition”. Moreover, the “MNV CC50” value in the data set with RAW 264.7 cells is listed as “CC50 value in the low micromolar range”.

`NC(=O)c1ncn([C@@H]2O[C@H](CO)[C@@H](O)[C@H]2O)n1` [Ribavirin]: in the data set on NoV, the EC50 is 43 µM. The CC50 in [1] was more than 100 µM.

On to `Cc1ccc(NC(=O)CSc2n[nH]c(-c3ccccc3O)n2)cc1` [Compound 1b], for which, on HuNoV (GII.4) RdRp [3], the “Inhibition … (gel-shift)” value was “partial inhibition”.

Regarding `Cc1cc(O)ccc1-c1ccc(/C=C2\SC(=O)N(CC(=O)N3CCOCC3)C2=O)o1` [Compound 4a], the “Inhibition … at 20 μM” value at HuNoV (GII.4) RdRp [5] is given as “modest inhibition”.

For `Cc1ccc(NC(=O)C[S+]([O-])c2n[nH]c(-c3ccccc3O)n2)c(C)c1` (stereo not drawn) [Compound 1e], the “Inhibition … at 20 μM” value at HuNoV (GII.4) RdRp [5] is “loss of inhibitory activity”.
